Reference: patent publication US20130337564A1, “Treatment of Pluripotent Cells” (Janssen Biotech, Inc., priority 2012, published 2013)

Tests used:
[1] = test system: human embryonic stem cells (H9 or H1 lines); assay: Plate reader (MTS) proliferation assay; type: cell-based; conditions: for activity at 10 µM: Homo sapiens, Embryonic stem cell, 96 h, 10 μM test compound with 100 ng/ml activin A on days 1-2, MTS OD490 on day 4, vs Activin A/Wnt3a positive control, strong and moderate hits; for Average: average of replicate raw data
Procedure, shortened: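 H9 or H1 cells on Matrigel, washed, then given DMEM:F12 with 0.5% FCS, 100 ng/ml activin A and 10 μM compound (days 1–2), then 2% FCS plus activin A (days 3–4). MTS added day 4, OD490 read after 1.5–4 h at 37 °C; triplicates as percent of activin A/Wnt3a control.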

[2] = test system: human embryonic stem cells (H9 line); assay: High content screening assay: cell number (proliferative response); type: cell-based; conditions: for fold induction at 10 µM: Homo sapiens, Embryonic stem cell, 10 μM test compound with 100 ng/ml activin A on days 1-2, H9, total cell number by IN Cell Analyzer, strong and moderate hits, read-out: Proliferative Response, Fold over Wnt 3a/AA control
Procedure, shortened: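 H9 hESCs on MATRIGEL treated days 1-2 with 10 μM compound in DMEM:F12, 0.5% FCS, 100 ng/ml activin A; days 3-4 with 2% FCS plus activin A without compound. Fixed cells immunostained for Sox17 or HNF-3beta with Draq5 nuclear counterstain. Cell number and staining intensity quantified by high-content imaging, 12 fields/well.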

[3] = cell number in the wells analysed for HNF-3b expression
[4] = cell number in the wells analysed for SOX-17 expression

Row | SMILES | Average (of Raw Data) ([1]; plate reader raw signal, mean of replicate wells, proliferation of human embryonic stem cells) | Proliferative Response Total cells [2, 3] | Proliferative Response Total cells [2, 4] | activity at 10 µM [1] | Average [1] | fold induction at 10 µM [2]
1 | COCCCn1cc(C2=C(c3ccccc3O)C(=O)NC2=O)c2cccnc21 [Compound 22, 3-(2-Hydroxyphenyl)-4-{1-[3-(methyloxy)propyl]-1H-pyrrolo[2,3-b]pyridin-3-yl}-1H-pyrrole-2,5-dione] | 0.3385 | 69 | 33 | – | – | –
2 | COc1ccccc1C1=C(c2cn(-c3cccnc3)c3ccccc23)C(=O)NC1=O [Compound 216, 3-[2-(Methyloxy)phenyl]-4-(1-pyridin-3-yl-1H-indol-3-yl)-1H-pyrrole-2,5-dione] | – | 8479 | 5991 | 76.9% | 1.1235 | –
3 | O=C1NC(=O)C(c2cn(-c3cccnc3)c3ccccc23)=C1c1cn(CCO)c2ccccc12 [Compound 206, 3-[1-(2-Hydroxyethyl)-1H-indol-3-yl]-4-(1-pyridin-3-yl-1H-indol-3-yl)-1H-pyrrole-2,5-dione] | – | 10331 | 11886 | 108% | 1.7251 | 1.42
4 | Cn1cc(C2=C(c3nn(CCCn4ccnn4)c4ccccc34)C(=O)NC2=O)c2cc(Cl)ccc21 [Compound 232, 3-(5-Chloro-1-methyl-1H-indol-3-yl)-4-{1-[3-(1H-1,2,3-triazol-1-yl)propyl]-1H-indazol-3-yl}-1H-pyrrole-2,5-dione] | – | 14950 | 16652 | 132% | 1.8323 | 1.09
